Source: ChEMBL document CHEMBL5113402, “Inhibition of cytochrome P450 monooxygenase-catalyzed oxylipin formation by flavonoids: Evaluation of structure-activity relationship towards CYP4F2-selective inhibitors” (Eur J Med Chem, 2022)
≈ marks a conversion by molar mass, not a printed value.

Columns and labels:
[1] = target: CYP450 (20-HETE formation) (Homo sapiens, UniProt P04798+P05177+P05181+P08684+P10632+P10635+P11509+P11712+P13584+P20813+P20815+P20853+P24462+P24903+P33260+P33261+P51589+P78329+P98187+Q02928+Q08477+Q16678+Q16696+Q5TCH4+Q6VVX0+Q7Z449+Q8TAV3+Q96SQ9+Q9HB55); experiment: Inhibition of CYP450 in human liver microsomes assessed as inhibition of 20-HETE formation at 10 uM in presence of arachidonic acid and NADPH by multi-enzyme assay based LC-MS/MS analysis relative to control; assay type: ADME, Microsome; conditions: probe arachidonic acid
Homo sapiens = species: Homo sapiens; experiment: Selectivity index, log ratio of Inhibition of CYP450 in human liver microsomes assessed as inhibition of EpETrE formation in presence of arachidonic acid to Inhibition of CYP450 in human liver microsomes assessed as inhibition of 20-HETE formation in presence of arachidonic acid
[2] = target: CYP450 (EpETrE formation) (Homo sapiens, UniProt P04798+P05177+P05181+P08684+P10632+P10635+P11509+P11712+P13584+P20813+P20815+P20853+P24462+P24903+P33260+P33261+P51589+P78329+P98187+Q02928+Q08477+Q16678+Q16696+Q5TCH4+Q6VVX0+Q7Z449+Q8TAV3+Q96SQ9+Q9HB55); experiment: Inhibition of CYP450 in human liver microsomes assessed as inhibition of EpETrE formation at 10 uM in presence of arachidonic acid and NADPH by multi-enzyme assay based LC-MS/MS analysis relative to control; assay type: ADME, Microsome; conditions: probe arachidonic acid
[3] = Solubility of the compound in phospahte-buffered saline buffer at pH 7.4 by shake flask method; assay type: physicochemical; conditions: phosphate-buffered saline
Cytochrome P450 4F2 = target: T1, Cytochrome P450 4F2 (Homo sapiens, UniProt P78329); experiment: Inhibition of recombinant CYP4F2 (unknown origin) incubated for 5 to 15 mins in presence of NADPH by LC-MS/MS analysis; assay type: ADME
T1 sequence (P78329 whole entry): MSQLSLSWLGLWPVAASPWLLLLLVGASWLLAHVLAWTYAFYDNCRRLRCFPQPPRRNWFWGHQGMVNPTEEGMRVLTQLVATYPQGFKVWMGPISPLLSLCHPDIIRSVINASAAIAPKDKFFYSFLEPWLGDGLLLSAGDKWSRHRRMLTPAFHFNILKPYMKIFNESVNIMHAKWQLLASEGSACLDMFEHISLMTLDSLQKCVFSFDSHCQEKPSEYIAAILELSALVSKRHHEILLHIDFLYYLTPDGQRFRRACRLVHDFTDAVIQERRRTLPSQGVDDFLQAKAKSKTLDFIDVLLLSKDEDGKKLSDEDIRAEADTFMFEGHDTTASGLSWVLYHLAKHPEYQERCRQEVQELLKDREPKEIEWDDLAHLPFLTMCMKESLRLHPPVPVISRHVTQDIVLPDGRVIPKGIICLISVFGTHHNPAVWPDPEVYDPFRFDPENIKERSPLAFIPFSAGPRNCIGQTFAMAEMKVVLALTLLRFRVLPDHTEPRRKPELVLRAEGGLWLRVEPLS

| Structure (SMILES) | inhibition at 10 µM [1] [%] | log(ratio) (Homo sapiens) | inhibition at 10 µM [2] [%] | solubility thermodynamic [3] [µM] | IC50 (Cytochrome P450 4F2) [µM] |
| --- | --- | --- | --- | --- | --- |
| O=c1cc(-c2ccc(O)c(O)c2)oc2ccccc12 | 32 | 0.17 | 19 | – | – |
| O=c1cc(-c2ccccc2)oc2cc(O)c(O)c(O)c12 [BAICALEIN] | < 15 | -0.36 | 32 | – | – |
| O=c1cc(-c2ccc(O)c(O)c2)oc2ccc(O)cc12 | 26 | 0.29 | < 15 | – | – |
| O=c1cc(-c2ccc(Br)cc2)oc2ccc(O)cc12 | < 15 | 0 | < 15 | – | – |
| O=c1c(-c2ccc(O)cc2)coc2cc(O)cc(O)c12 [GENISTEIN] | 39 | 0.49 | < 15 | – | – |
| COc1ccc2oc(-c3ccc(Br)cc3)cc(=O)c2c1 | 17 | 0.16 | < 15 | – | – |
| O=c1cc(-c2ccc(O)cc2)oc2ccccc12 | < 15 | 0.05 | < 15 | – | – |
| O=c1cc(-c2ccc(Br)cc2)oc2ccccc12 | 35 | 0.4 | < 15 | – | – |
| O=c1cc(-c2ccccc2)oc2ccc(O)cc12 [6-HYDROXYFLAVONE] | < 15 | -0.01 | 15 | – | – |
| O=c1cc(-c2ccccc2O)oc2ccccc12 | < 15 | -0.29 | 24 | – | – |
| COc1ccc2oc(-c3ccc(OC)c(OC)c3)cc(=O)c2c1 | < 15 | 0.07 | < 15 | – | – |
| COc1ccc2oc(-c3ccc(C(F)(F)F)cc3)cc(=O)c2c1 | 55 | 0.59 | < 15 | 1 (≈ 0.32 µg/mL) | – |
| Cc1ccc(-c2cc(=O)c3ccccc3o2)cc1 | 32 | 0.07 | 26 | – | – |
| O=c1cc(-c2ccccc2)oc2cc(O)ccc12 [7-HYDROXYFLAVONE] | < 15 | – | 35 | – | – |
| COc1ccc(-c2cc(=O)c3cc(OC)ccc3o2)cc1 [6,4'-DIMETHOXYFLAVONE] | < 15 | 0 | < 15 | – | – |
| COc1ccc(-c2cc(=O)c3ccccc3o2)cc1OC [3',4'-DIMETHOXYFLAVONE] | 18 | 0.08 | < 15 | – | – |
| COc1cc2oc(-c3ccccc3)cc(=O)c2c(OC)c1OC [BAICALEIN TRIMETHYL ETHER] | < 15 | -0.09 | < 15 | – | – |
| CC(=O)OC[C@@]12CC[C@@]3(C)[C@H]4C(=CC[C@]3(C)[C@H]1[C@H](O)C[C@H]2C(C)C)[C@@]1(C)CCC(=O)C(C)(C)[C@@H]1C[C@@H]4O [RUBIARBONONE C] | – | – | – | – | 4.2 |

The next lines start with results.

| inhibition at 10 µM [1] [%] | log(ratio) (Homo sapiens) | inhibition at 10 µM [2] [%] | solubility thermodynamic [3] [µM] | Structure (SMILES) | IC50 (Cytochrome P450 4F2) [µM] |
| --- | --- | --- | --- | --- | --- |
| 25 | 0.25 | < 15 | – | COc1ccc(-c2coc3cc(O)cc(O)c3c2=O)cc1 [BIOCHANIN] | – |
| < 15 | 0 | < 15 | – | COc1cccc(-c2coc3ccccc3c2=O)c1 | – |
| < 15 | – | 50 | – | COc1ccc2c(=O)cc(-c3ccccc3)oc2c1 [7-METHOXYFLAVONE] | – |
| < 15 | -0.4 | 37 | – | COc1ccccc1-c1cc(=O)c2ccccc2o1 | – |
| < 15 | 0.19 | < 15 | – | O=c1c(-c2ccccc2)coc2ccccc12 [ISOFLAVONE] | – |
| < 15 | -0.05 | 16 | – | COc1ccc2oc(-c3ccccc3)cc(=O)c2c1 [6-METHOXYFLAVONE] | – |
| < 15 | -0.15 | < 15 | – | COc1ccccc1-c1coc2ccccc2c1=O | – |
| < 15 | 0.18 | < 15 | – | COc1ccc(-c2coc3ccccc3c2=O)cc1 | – |
| < 15 | -0.09 | < 15 | – | COc1cccc(-c2cc(=O)c3cc(OC)ccc3o2)c1 [6,3'-DIMETHOXYFLAVONE] | – |
| < 15 | 0 | < 15 | – | O=c1cc(-c2ccccc2)oc2ccccc12 [FLAVONE] | – |
| 27 | 0.13 | 20 | – | COc1ccc(-c2cc(=O)c3ccccc3o2)cc1 [4'-METHOXYFLAVONE] | – |
| 27 | 0.22 | < 15 | – | COc1ccc(-c2coc3ccccc3c2=O)cc1OC | – |
